Earlier results as cited in patent US6831088B2, “3-heterocyclypropanohydroxamic acid PCP inhibitors” (Pfizer Inc., priority 2001, dated 2004).
Where two headings read alike, the source gives them in different places.

Tested on: PCP

For `[Cl-].[Na+]` [NaCl], the “activity of PCP relative to that observed with the standard assay concentration of 0.15M” value (0.2M NaCl) is given as 66%, the “activity of PCP relative to that observed with the standard assay concentration of 0.15M” value (0.3M NaCl) is given as 38% and the “activity of PCP relative to that observed with the standard assay concentration of 0.15M” value (0.5M NaCl) is given as 25%.
